Patent US20250152584A1, “NLRP3 INFLAMMASOME INHIBITOR AND USES THEREOF” (TransThera Sciences (Nanjing), Inc., priority 2022, published 2025)

Tests used:
[1] = Pharmacokinetic study in C57BL/6J mice; assay type: in vivo; details: mouse, plasma, C57BL/6J female mice; for Tmax: median, read-out: Tmax po (peak time of plasma concentration); for Cmax: read-out: Cmax po (peak concentration); for clearance: read-out: Cl—obs iv (clearance rate) (converted); for Vd: read-out: Vss iv (volume of distribution); for bioavailability: iv 5 mg/kg / po 10 mg/kg, read-out: F % (absolute bioavailability)
Experimental: Experimental Example 2: Pharmacokinetic Study of Compounds in C57BL/6J Mice
Compound 100, Compound 54, Compound 174, Compound 179, and Compound 253 were prepared into solutions with a mixed solvent formulated from 5% dimethyl sulfoxide, 20% (30% solutol) and 75% normal saline, respectively; the solution of each compound was administered to C57BL/6J female mice by gavage at a dose of 10 mg/kg; and the time points for blood collection were: 15 min, 30 min, 1 h, 2 h, 4 h, 6 h, 8 h and 24 h. The solution of the compound was administered to C57BL/6J female mice by intravenous bolus at a dose of 5 mg/kg, and the time points for blood collection were as follows: 5 min, 15 min, 30 min, 1 h, 2 h, 4 h, 6 h, 8 h, and 24 h.
Compound 1 was prepared into a solution with a mixed solvent formulated from 5% DME, 20% (30% solutol) and 75% normal saline; the solution of this compound was administered to C57BL/6J female mice by gavage at a dose of 10 mg/kg, and the time points for blood collection were: 15 min, 30 min, 1 h, 2 h, 4 h, 6 h, 8 h, and 24 h. The solution of the compound was administered to C57BL/6J female mice by intravenous bolus at a dose of 5 mg/kg, and the time points for blood collection were as follows: 5 min, 15 min, 30 min, 1 h, 2 h, 4 h, 6 h, 8 h, and 24 h.
Compound 195 was prepared into a solution with a mixed solvent formulated from 5% dimethyl sulfoxide, 20% PEG400 and 75% normal saline; the solution of this compound was administered to C57BL/6J female mice by gavage at a dose of 10 mg/kg; and the time points for blood collection were 15 min, 30 min, 1 h, 2 h, 4 h, 6 h, 8 h, and 24 b. The solution of the compound was administered to C57BL/6J female mice by intravenous bolus at a dose of 5 mg/kg, and the time points for blood collection were as follows: 5 min, 15 min, 30 min, 1 h, 2 b, 4 h, 6 h, 8 h, and 24 h.
(§1) Approximately 100 μL of blood was collected through the retroorbital venous plexus, and was then placed in an anticoagulant tube containing EDTA-K2. Blood samples were centrifuged at 12,000 rpm for 10 min at 4° C. to obtain plasma samples, and plasma was prepared within 30 min after blood collection. The plasma was stored in a −80° C. freezer before testing.
• 1. The samples were taken from the −80° C. freezer, thawed naturally at room temperature, and then vortexed for 5 min • 2. 10 μL of a plasma sample was precisely pipetted from different individuals into a 1.5 mL centrifuge tube. • 3. 300 μL of an internal standard working solution (the acetonitrile solution of tolbutamide) at a concentration of […] was added and mixed well. • 4. After vortexing for 5 min, the mixture was centrifuged at 12,000 rpm for 5 min. • 5. 50 μL of the supernatant was accurately pipetted into a 96-well plate preloaded with water at 150 μL/well. • 6. Vortexing was performed for 5 min for sufficient mixing, and LC-MS/MS analysis was then conducted.
(§2) The results of the concentrations of the compounds under test were output using Analyst 1.6.3 of AB. Parameters such as mean, standard deviation, coefficient of variation was calculated by Microsoft Excel (parameters directly output by Analyst 1.6.3 needed no calculation), and PK parameters were calculated by WinNonlin Phenoix 8.2 software NCA (Tmax as the median).

[2] = Pharmacokinetic study in SD male rats; assay type: in vivo; details: rat, plasma; for clearance: read-out: Cl—obs iv (clearance rate) (converted); for Vd: read-out: Vss iv (volume of distribution); for bioavailability: iv 1.0 mg/kg / po 5.0 mg/kg, read-out: F % (absolute bioavailability); for Tmax: median, read-out: Tmax po (peak time of plasma concentration); for Cmax: read-out: Cmax po (peak concentration)
Experimental: Experimental Example 3: Pharmacokinetic Study of Compounds in SD Male Rats
Compound 54, Compound 55, Compound 174, Compound 173, and Compound 264 were prepared into solutions with a mixed solvent formulated from 5% dimethyl sulfoxide, 20% (30% solutol) and 75% normal saline, respectively; the solution of each compound was administered to SD male rats by gavage at a dose of 5.0 mg/kg; and the time points for blood collection were: 15 min, 30 min, 1 h, 2 h, 4 h, 6 h, 8 h, 10 h and 24 h. The solution of the compound was administered to male SD rats by intravenous bolus at a dose of 1.0 mg/kg, and the time points for blood collection were as follows: 5 min, 15 min, 30 min, 1 h, 2 h, 4 h, 6 h, 8 h, 10 h, and 24 h.
as §1, with “On the day before administration, the jugular vein of each animal was cannulated; and after administration, about 300” for “Approximately 100”, “jugular vein,” for “retroorbital venous plexus,”, “and” for “and was”
• 1. The samples were taken from the −80° C. freezer, thawed naturally at room temperature, and then vortexed for 5 min. • 2. 30 μL of a plasma sample was precisely pipetted into a 1.5 mL centrifuge tube. • 3. 750 μL of an internal standard working solution (the acetonitrile solution of tolbutamide) at a concentration of […] was added and mixed well. • 4. After vortexing for 5 min, the mixture was centrifuged at 12,000 rpm for 5 min. • 5. 50 μL of the supernatant was accurately pipetted into a 96-well plate preloaded with water at 150 μL/well. • 6. Vortexing was performed for 5 min for sufficient mixing, and LC-MS/MS analysis was then conducted.
as §2

[3] = po, gavage 10 mg/kg, read-out: AUClast po (area under the drug-time curve for 0-24 h)
[4] = po, gavage 10 mg/kg, read-out: tz1/2 po (terminal elimination half-life) (converted)
[5] = intravenous bolus 5 mg/kg, read-out: AUClast iv (area under the drug-time curve for 0-24 h)
[6] = intravenous bolus 5 mg/kg, read-out: tz1/2 iv (terminal elimination half-life) (converted)
[7] = intravenous bolus 1.0 mg/kg, read-out: AUClast iv (area under the drug-time curve for 0-24 h)
[8] = intravenous bolus 1.0 mg/kg, read-out: tz1/2 iv (terminal elimination half-life) (converted)
[9] = po, gavage 5.0 mg/kg, read-out: AUClast po (area under the drug-time curve for 0-24 h)
[10] = po, gavage 5.0 mg/kg, read-out: tz1/2 po (terminal elimination half-life) (converted)

Row | Tmax ([1]; po, gavage 10 mg/kg) [h] | AUC(0-t) [1, 3] [ng·h/mL] | Cmax ([1]; po, gavage 10 mg/kg) [ng/mL] | half-life [1, 4] [h] | AUC(0-t) [1, 5] [ng·h/mL] | clearance ([1]; intravenous bolus 5 mg/kg) [mL/min/kg] | Vd ([1]; intravenous bolus 5 mg/kg) [L/kg] | half-life [1, 6] [h] | bioavailability [1] [%] | AUC(0-t) [2, 7] [ng·h/mL] | clearance ([2]; intravenous bolus 1.0 mg/kg) [mL/min/kg] | Vd ([2]; intravenous bolus 1.0 mg/kg) [L/kg] | half-life [2, 8] [h] | bioavailability [2] [%] | Tmax ([2]; po, gavage 5.0 mg/kg) [h] | AUC(0-t) [2, 9] [ng·h/mL] | Cmax ([2]; po, gavage 5.0 mg/kg) [ng/mL] | half-life [2, 10] [h] | SMILES
1 | 1 | 4130 | 820 | 3.04 | 2400 | 30.5 | 6.59 | 2.97 | 75.6 | 749 | 20.2 | 5.01 | 2.97 | 93.1 | 1 | 3790 | 442 | 3.94 | C#Cc1ccc(-c2nnc(N[C@@H]3CCCN(C)C3)cc2C)c(O)c1 [Compound 54, (R)-5-ethynyl-2-(4-methyl-6-((1-methylpiperidin-3-yl)amino)pyridazin-3-yl)phenol]
2 | 0.5 | 20100 | 3160 | 3.82 | 8610 | 9.57 | 2.64 | 3.95 | 116 | 813 | 18.2 | 4.82 | 3.6 | 97 | 2 | 4430 | 465 | 3.51 | CC#Cc1ccc(-c2nnc(N[C@@H]3CCCN(C)C3)cc2C)c(O)c1 [Compound 174, (R)-2-(4-methyl-6-((1-methylpiperidin-3-yl)amino)pyridazin-3-yl)-5-(prop-1-yn-1-yl)phenol]
